Earlier results on 1 compound are cited in publication PMC8453901, “GLPG1205, a GPR84 Modulator: Safety, Pharmacokinetics, and Pharmacodynamics in Healthy Subjects” (Clinical Pharmacology in Drug Development, 2021).

Each structure is given as a SMILES string.

For this series, the system named is histological lesions in the lung. The arrangement: method as in PMID 29454750. As to conditions: bleomycin-induced mouse model of pulmonary fibrosis, compared with vehicle; cited from earlier work.

As for `CCCCCc1cccc(CC(=O)O)c1` [PBI‐4050], the “reduction of histological lesions in the lung” value is 47%.
